According to patent publication US11180474B2 (BRISTOL-MYERS SQUIBB COMPANY, priority 2016, dated 2021):

Columns and labels:
[1] = target: T1, human TLR7 (Homo sapiens, UniProt Q9NYK1); test: TLR7 inhibition reporter assay (HEK-Blue cells, SEAP reporter, gardiquimod stimulation); type: cell-based; details: HEK-Blue cells overexpressing human TLR7, gardiquimod 7.5 μM
T1 construct: host or cells: HEK-Blue cells
T1 sequence (Q9NYK1 27-1049): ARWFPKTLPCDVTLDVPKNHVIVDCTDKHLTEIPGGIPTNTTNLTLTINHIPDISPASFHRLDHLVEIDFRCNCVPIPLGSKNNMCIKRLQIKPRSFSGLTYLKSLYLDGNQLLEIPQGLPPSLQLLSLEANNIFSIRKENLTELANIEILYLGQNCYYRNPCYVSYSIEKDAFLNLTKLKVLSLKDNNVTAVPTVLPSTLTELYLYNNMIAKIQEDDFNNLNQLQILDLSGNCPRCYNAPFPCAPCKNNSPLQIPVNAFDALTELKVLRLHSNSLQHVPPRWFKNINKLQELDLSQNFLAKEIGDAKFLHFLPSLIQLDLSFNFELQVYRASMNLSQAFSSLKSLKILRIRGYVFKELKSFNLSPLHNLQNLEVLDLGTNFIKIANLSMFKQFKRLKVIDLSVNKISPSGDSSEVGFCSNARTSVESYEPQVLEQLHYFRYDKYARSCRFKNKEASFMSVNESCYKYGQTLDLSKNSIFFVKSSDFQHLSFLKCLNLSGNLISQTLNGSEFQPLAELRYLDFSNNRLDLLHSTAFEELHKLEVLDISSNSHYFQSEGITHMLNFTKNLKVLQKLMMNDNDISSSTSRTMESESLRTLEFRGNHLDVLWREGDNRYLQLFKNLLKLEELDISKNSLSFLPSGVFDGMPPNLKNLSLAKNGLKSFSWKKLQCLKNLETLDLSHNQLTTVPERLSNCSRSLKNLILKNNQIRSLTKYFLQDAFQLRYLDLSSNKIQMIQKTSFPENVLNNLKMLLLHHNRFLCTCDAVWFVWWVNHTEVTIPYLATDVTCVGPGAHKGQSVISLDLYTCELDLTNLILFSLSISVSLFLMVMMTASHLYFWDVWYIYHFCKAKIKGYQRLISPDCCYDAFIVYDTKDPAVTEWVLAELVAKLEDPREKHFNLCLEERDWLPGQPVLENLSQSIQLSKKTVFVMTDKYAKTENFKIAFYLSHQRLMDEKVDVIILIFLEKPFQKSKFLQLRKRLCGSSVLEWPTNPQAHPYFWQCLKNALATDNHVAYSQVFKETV
Outline: (§1)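 SEAP readout via HEK-Blue Detection medium after 22 h at 37 °C, 5% CO2 defines inhibition, normalized between agonist-plus-DMSO wells and a reference inhibitor. Compound dose range 0.05 nM–50 μM; TLR7 cells at 15,000/well (gardiquimod), TLR8 at 20,000/well (R848).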

[2] = target: T2, human TLR8 (Homo sapiens, UniProt Q9NR97); test: TLR8 inhibition reporter assay (HEK-Blue cells, SEAP reporter, R848 stimulation); type: cell-based; details: HEK-Blue cells overexpressing human TLR8, R848 15.9 μM
T2 construct: host or cells: HEK-Blue cells
T2 sequence (Q9NR97 27-1041): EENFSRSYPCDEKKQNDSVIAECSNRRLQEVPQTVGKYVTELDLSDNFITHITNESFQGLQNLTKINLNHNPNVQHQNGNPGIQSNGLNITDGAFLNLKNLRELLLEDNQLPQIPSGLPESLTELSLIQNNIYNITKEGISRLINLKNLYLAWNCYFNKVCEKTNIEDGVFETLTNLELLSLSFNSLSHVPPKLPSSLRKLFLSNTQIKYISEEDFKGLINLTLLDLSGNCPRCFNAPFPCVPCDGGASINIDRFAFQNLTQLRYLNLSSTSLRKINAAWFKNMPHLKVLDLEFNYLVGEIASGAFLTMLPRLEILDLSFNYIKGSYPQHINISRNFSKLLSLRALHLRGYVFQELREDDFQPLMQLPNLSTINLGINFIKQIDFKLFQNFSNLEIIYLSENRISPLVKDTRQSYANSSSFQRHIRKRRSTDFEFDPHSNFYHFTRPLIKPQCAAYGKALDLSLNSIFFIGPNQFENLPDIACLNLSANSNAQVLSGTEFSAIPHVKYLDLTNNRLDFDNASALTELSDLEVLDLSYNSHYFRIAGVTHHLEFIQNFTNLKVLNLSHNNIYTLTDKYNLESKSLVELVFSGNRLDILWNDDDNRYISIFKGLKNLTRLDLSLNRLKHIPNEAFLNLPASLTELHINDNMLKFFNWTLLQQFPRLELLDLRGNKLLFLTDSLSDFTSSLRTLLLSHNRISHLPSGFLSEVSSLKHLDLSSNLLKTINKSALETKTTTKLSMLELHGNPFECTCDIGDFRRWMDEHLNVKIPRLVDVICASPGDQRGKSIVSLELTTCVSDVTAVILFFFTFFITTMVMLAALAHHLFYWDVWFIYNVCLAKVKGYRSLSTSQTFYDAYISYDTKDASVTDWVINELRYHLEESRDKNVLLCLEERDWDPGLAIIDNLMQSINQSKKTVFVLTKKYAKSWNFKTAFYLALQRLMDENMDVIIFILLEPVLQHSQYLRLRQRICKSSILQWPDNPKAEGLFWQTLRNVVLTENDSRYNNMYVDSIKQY
Outline: as §1

Structure (SMILES) | IC50 [1] | IC50 [2]
COc1ccc(-c2[nH]c3ccc(C4CCN(C(=O)CN(C)C)CC4)cc3c2CC(F)(F)F)cc1OC [Example 354, 1-(4-(2-(3,4-dimethoxyphenyl)-3-(2,2,2-trifluoroethyl)-1H-indol-5-yl)piperidin-1-yl)-2-(dimethylamino)ethan-1-one] | 22 nM | 82 nM
COc1ccc(-c2[nH]c3ccc(C4CCN(C(=O)CCC(N)=O)CC4)cc3c2CC(F)(F)F)cc1OC [Example 333, 4-(4-(2-(3,4-dimethoxyphenyl)-3-(2,2,2-trifluoroethyl)-1H-indol-5-yl)piperidin-1-yl)-4-oxobutanamide] | 94 nM | 702 nM
COc1ccc(-c2[nH]c3ccc(C4CCN(CC(=O)N5CCC(N6CCN(C)CC6)CC5)CC4)cc3c2CC(F)(F)F)cc1OC [Example 363, 2-(4-(2-(3,4-dimethoxyphenyl)-3-(2,2,2-trifluoroethyl)-1H-indol-5-yl)piperidin-1-yl)-1-(4-(4-methylpiperazin-1-yl)piperidin-1-yl) ethan-1-one] | 8 nM | 44 nM
COc1ccc(-c2[nH]c3ccc(C4CCN(CC(=O)N5CCC(N(C)C)CC5)CC4)cc3c2CC(F)(F)F)cc1OC [Example 364, 2-(4-(2-(3,4-dimethoxyphenyl)-3-(2,2,2-trifluoroethyl)-1H-indol-5-yl)piperidin-1-yl)-1-(4-(dimethylamino)piperidin-1-yl)ethan-1-one] | 23 nM | 76 nM
COc1ccc(-c2[nH]c3ccc(C4CCN(CC(=O)N(C)CCCN(C)C)CC4)cc3c2CC(F)(F)F)cc1OC [Example 365, 2-(4-(2-(3,4-dimethoxyphenyl)-3-(2,2,2-trifluoroethyl)-1H-indol-5-yl)piperidin-1-yl)-N-(3-(dimethylamino)propyl)-N-methylacetamide] | 14 nM | 24 nM
COc1ccc(-c2[nH]c3ccc(C4CCN(C(=O)CCn5cccc5)CC4)cc3c2CC(F)(F)F)cc1OC [Example 344, 1-(4-(2-(3,4-dimethoxyphenyl)-3-(2,2,2-trifluoroethyl)-1H-indol-5-yl)piperidin-1-yl)-3-(1H-pyrrol-1-yl)propan-1-one] | 881 nM | 1420 nM
COc1ccc(-c2[nH]c3ccc(C4CCN(CC(=O)N5CCN(c6ccncc6)CC5)CC4)cc3c2CC(F)(F)F)cc1OC [Example 366, 2-(4-(2-(3,4-dimethoxyphenyl)-3-(2,2,2-trifluoroethyl)-1H-indol-5-yl)piperidin-1-yl)-1-(4-(pyridin-4-yl)piperazin-1-yl) ethan-1-one] | 4 nM | 23 nM
COc1ccc(-c2[nH]c3ccc(C4CCN(C(=O)CCc5cccnc5)CC4)cc3c2CC(F)(F)F)cc1OC [Example 348, 1-(4-(2-(3,4-dimethoxyphenyl)-3-(2,2,2-trifluoroethyl)-1H-indol-5-yl)piperidin-1-yl)-3-(pyridin-3-yl) propan-1-one] | 413 nM | 1420 nM
COc1ccc(-c2[nH]c3ccc(C4CCN(C(=O)CS(C)(=O)=O)CC4)cc3c2CC(F)(F)F)cc1OC [Example 347, 1-(4-(2-(3,4-dimethoxyphenyl)-3-(2,2,2-trifluoroethyl)-1H-indol-5-yl)piperidin-1-yl)-2-(methylsulfonyl)ethan-1-one] | 155 nM | 767 nM
CCNC(=O)N1CCC(c2ccc3[nH]c(-c4ccc(OC)c(OC)c4)c(CC(F)(F)F)c3c2)CC1 [Example 356, 4-(2-(3,4-dimethoxyphenyl)-3-(2,2,2-trifluoroethyl)-1H-indol-5-yl)-N-ethylpiperidine-1-carboxamide] | 618 nM | 626 nM
COc1ccc(-c2[nH]c3ccc(C4CCNCC4F)cc3c2C(C)C)cc1OC (single isomer, unassigned) [Example 321, 2-(3,4-dimethoxyphenyl)-5-(3-fluoropiperidin-4-yl)-3-isopropyl-1H-indole] | 22 nM | 21 nM

Results, then the compound that gave them:

IC50 [1] | IC50 [2] | Structure (SMILES)
157 nM | 110 nM | COc1ccc(-c2[nH]c3ccc(C4CCN(CC(=O)N(C)C)CC4)cc3c2CC(F)F)cc1OC [Example 400, 2-(4-(3-(2,2-difluoroethyl)-2-(3,4-dimethoxyphenyl)-1H-indol-5-yl)piperidin-1-yl)-N,N-dimethylacetamide]
13 nM | 30 nM | COc1ccc(-c2[nH]c3ccc(C4CCN(CC(=O)NCCCn5ccnc5)CC4)cc3c2CC(F)(F)F)cc1OC [Example 383, N-(3-(1H-imidazol-1-yl)propyl)-2-(4-(2-(3,4-dimethoxyphenyl)-3-(2,2,2-trifluoroethyl)-1H-indol-5-yl)piperidin-1-yl)acetamide]
1390 nM | 660 nM | COc1ccc(-c2[nH]c3ccc(C4CCN(C(=O)CN[C@H](C)C(C)C)CC4)cc3c2C2CCOCC2)cc1OC [Example 394, (R)-1-(4-(2-(3,4-dimethoxyphenyl)-3-(tetrahydro-2H-pyran-4-yl)-1H-indol-5-yl)piperidin-1-yl)-2-((3-methylbutan-2-yl)amino)ethan-1-one]
178 nM | 65 nM | COc1ccc(-c2[nH]c3ccc(C4CCN(CC(=O)NCCCN5CCCC5=O)CC4)cc3c2CC(F)(F)F)cc1OC [Example 376, 2-(4-(2-(3,4-dimethoxyphenyl)-3-(2,2,2-trifluoroethyl)-1H-indol-5-yl)piperidin-1-yl)-N-(3-(2-oxopyrrolidin-1-yl)propyl)acetamide]
3150 nM | 3750 nM | CCN(CC)C(=O)C1CCCN(CC(=O)N2CCC(c3ccc4[nH]c(-c5ccc(OC)c(OC)c5)c(C)c4c3)CC2)C1 (centres unmarked) [Example 404, 1-(2-(4-(2-(3,4-dimethoxyphenyl)-3-methyl-1H-indol-5-yl)piperidin-1-yl)-2-oxoethyl)-N,N-diethylpiperidine-3-carboxamide]
16 nM | 44 nM | COc1ccc(-c2[nH]c3ccc(C4CCN(CC(=O)N5CC[C@@H](N(C)C)C5)CC4)cc3c2CC(F)(F)F)cc1OC [Example 373, (R)-2-(4-(2-(3,4-dimethoxyphenyl)-3-(2,2,2-trifluoroethyl)-1H-indol-5-yl)piperidin-1-yl)-1-(3-(dimethylamino)pyrrolidin-1-yl)ethan-1-one]
557 nM | 590 nM | COc1ccc(-c2[nH]c3ccc(C4CCN(CC(=O)NCCS(=O)(=O)O)CC4)cc3c2CC(F)(F)F)cc1OC [Example 386, 2-(2-(4-(2-(3,4-dimethoxyphenyl)-3-(2,2,2-trifluoroethyl)-1H-indol-5-yl)piperidin-1-yl)acetamido)ethane-1-sulfonic acid]
626 nM | 356 nM | CCN(CC)C(=O)C1CCCN(CC(=O)N2CCC(c3ccc4[nH]c(-c5ccc(OC)c(OC)c5)c(C5CCOCC5)c4c3)CC2)C1 (centres unmarked) [Example 391, 1-(2-(4-(2-(3,4-dimethoxyphenyl)-3-(tetrahydro-2H-pyran-4-yl)-1H-indol-5-yl)piperidin-1-yl)-2-oxoethyl)-N,N-diethylpiperidine-3-carboxamide]
